These results are taken from PubChem BioAssay AID1259407 (Chemical Carcinogenesis Research Information System (CCRIS), 2018).

The test system of the data set is CCRIS mutagenicity, Ames/micronucleus/aberration tests. In words: CCRIS mutagenicity studies.
Where [1] appears, read: Test System: AMES SALMONELLA TYPHIMURIUM, Strain/Indicator: TA98, Metabolic Activation: NONE, Method: PREINCUBATION
Where [2] appears, read: Test System: AMES SALMONELLA TYPHIMURIUM, Strain/Indicator: TA100, Metabolic Activation: NONE, Method: PREINCUBATION
The mark [3] stands for this setting: Test System: AMES SALMONELLA TYPHIMURIUM, Strain/Indicator: TA100, Metabolic Activation: NONE, Method: STANDARD PLATE.
The mark [4] stands for this setting: Test System: AMES SALMONELLA TYPHIMURIUM, Strain/Indicator: TA1535, Metabolic Activation: NONE, Method: PREINCUBATION
Setting [5] is: Test System: AMES SALMONELLA TYPHIMURIUM, Strain/Indicator: TA1537, Metabolic Activation: NONE, Method: PREINCUBATION

SMILES strings stand for the structures. Activity calls are given as the source filed them. How the calls were made is not given here.

Consider `O=P(O)(O)O`, for which the mutagenic call (End Point: IN VITRO CHROMOSOMAL ABERRATIONS, Test System: CHO CELLS, Metabolic Activation: NONE) is “inactive; negative”; the mutagenic call (End Point: IN VITRO CHROMOSOMAL ABERRATIONS, Test System: CHO CELLS, Metabolic Activation: RAT, LIVER, S-9, AROCLOR 1254) was “active; positive”; the mutagenic call (Test System: AMES SALMONELLA TYPHIMURIUM, Strain/Indicator: TA97, Metabolic Activation: HAMSTER, LIVER, S-9, AROCLOR 1254, Method: PREINCUBATION) was “inactive; negative”; the mutagenic call (Test System: AMES SALMONELLA TYPHIMURIUM, Strain/Indicator: TA97, Metabolic Activation: NONE, Method: PREINCUBATION) is “inactive; negative”; the mutagenic call (Test System: AMES SALMONELLA TYPHIMURIUM, Strain/Indicator: TA97, Metabolic Activation: NONE, Method: STANDARD PLATE) was “inactive; negative”; the mutagenic call (Test System: AMES SALMONELLA TYPHIMURIUM, Strain/Indicator: TA97, Metabolic Activation: RAT, LIVER, S-9, AROCLOR 1254, Method: PREINCUBATION) was “inactive; negative”. The mutagenic call reads like this: (Test System: AMES SALMONELLA TYPHIMURIUM, Strain/Indicator: TA97, Metabolic Activation: RAT, LIVER, S-9, PHENOBARBITAL, Method: STANDARD PLATE) “inactive; negative”; (Test System: AMES SALMONELLA TYPHIMURIUM, Strain/Indicator: TA97, Metabolic Activation: S-9, Method: PREINCUBATION) “inactive; negative”; (Test System: AMES SALMONELLA TYPHIMURIUM, Strain/Indicator: TA98, Metabolic Activation: HAMSTER, LIVER, S-9, AROCLOR 1254, Method: PREINCUBATION) “inactive; negative”; under setting [1], “inactive; negative”; (Test System: AMES SALMONELLA TYPHIMURIUM, Strain/Indicator: TA98, Metabolic Activation: NONE, Method: STANDARD PLATE) “inactive; negative”; (Test System: AMES SALMONELLA TYPHIMURIUM, Strain/Indicator: TA98, Metabolic Activation: RAT, LIVER, S-9, AROCLOR 1254, Method: PREINCUBATION) “inactive; negative”. Also, the mutagenic call is, setting by setting: (Test System: AMES SALMONELLA TYPHIMURIUM, Strain/Indicator: TA98, Metabolic Activation: RAT, LIVER, S-9, PHENOBARBITAL, Method: STANDARD PLATE) “inactive; negative”; (Test System: AMES SALMONELLA TYPHIMURIUM, Strain/Indicator: TA100, Metabolic Activation: HAMSTER, LIVER, S-9, AROCLOR 1254, Method: PREINCUBATION) “inactive; negative”; under setting [2], “inactive; negative”; under setting [3], “inactive; negative”; (Test System: AMES SALMONELLA TYPHIMURIUM, Strain/Indicator: TA100, Metabolic Activation: RAT, LIVER, S-9, AROCLOR 1254, Method: PREINCUBATION) “inactive; negative”; (Test System: AMES SALMONELLA TYPHIMURIUM, Strain/Indicator: TA100, Metabolic Activation: RAT, LIVER, S-9, PHENOBARBITAL, Method: STANDARD PLATE) “inactive; negative”. The mutagenic call runs as follows: (Test System: AMES SALMONELLA TYPHIMURIUM, Strain/Indicator: TA102, Metabolic Activation: NONE, Method: PREINCUBATION) “inactive; negative”; (Test System: AMES SALMONELLA TYPHIMURIUM, Strain/Indicator: TA102, Metabolic Activation: RAT, LIVER, S-9, AROCLOR 1254, Method: PREINCUBATION) “inactive; negative”; (Test System: AMES SALMONELLA TYPHIMURIUM, Strain/Indicator: TA102, Metabolic Activation: S-9, Method: PREINCUBATION) “inactive; negative”; (Test System: AMES SALMONELLA TYPHIMURIUM, Strain/Indicator: TA104, Metabolic Activation: NONE, Method: STANDARD PLATE) “inactive; negative”; (Test System: AMES SALMONELLA TYPHIMURIUM, Strain/Indicator: TA104, Metabolic Activation: RAT, LIVER, S-9, PHENOBARBITAL, Method: STANDARD PLATE) “inactive; negative”; under setting [4], “inactive; negative”. The mutagenic call is “inactive; negative” (Test System: AMES SALMONELLA TYPHIMURIUM, Strain/Indicator: TA1537, Metabolic Activation: HAMSTER, LIVER, S-9, AROCLOR 1254, Method: PREINCUBATION); “inactive; negative” under setting [5]; “inactive; negative” (Test System: AMES SALMONELLA TYPHIMURIUM, Strain/Indicator: TA1537, Metabolic Activation: RAT, LIVER, S-9, AROCLOR 1254, Method: PREINCUBATION).

Take `O=C1c2ccccc2C(=O)c2cc(CO)ccc21`: the mutagenic call runs as follows: under setting [1], “inactive; negative”; (Test System: AMES SALMONELLA TYPHIMURIUM, Strain/Indicator: TA98, Metabolic Activation: RAT, LIVER, S-9, PCB, Method: PREINCUBATION) “inactive; negative”; under setting [2], “inactive; negative”; (Test System: AMES SALMONELLA TYPHIMURIUM, Strain/Indicator: TA100, Metabolic Activation: RAT, LIVER, S-9, PCB, Method: PREINCUBATION) “inactive; negative”; (Test System: UDS RODENT HEPATOCYTES, Strain/Indicator: THY INCORP (NON-S-PHASE), Metabolic Activation: NONE, Method: AUTORADIOGRAPHY) “inactive; negative”; (Test System: UDS RODENT HEPATOCYTES, Strain/Indicator: THY INCORP (NON-S-PHASE), Metabolic Activation: PHENOBARBITAL, Method: AUTORADIOGRAPHY) “active; positive”.

For `CCOc1ccc([N+](=O)[O-])cc1`, the mutagenic call is, setting by setting: under setting [1], “active; positive”; (Test System: AMES SALMONELLA TYPHIMURIUM, Strain/Indicator: TA100(NR), Metabolic Activation: RAT, LIVER, S-9, PCB, Method: PREINCUBATION) “inactive; negative”; under setting [4], “inactive; negative”; under setting [5], “inactive; negative”; (Test System: AMES SALMONELLA TYPHIMURIUM, Strain/Indicator: TA1538, Metabolic Activation: NONE, Method: PREINCUBATION) “inactive; negative”; (Test System: AMES SALMONELLA TYPHIMURIUM, Strain/Indicator: YG1026, Metabolic Activation: NONE, Method: PREINCUBATION) “active; positive”. The mutagenic call (Test System: AMES SALMONELLA TYPHIMURIUM, Strain/Indicator: YG1029, Metabolic Activation: NONE, Method: PREINCUBATION) is “active; positive” and the mutagenic call (Test System: AMES SALMONELLA TYPHIMURIUM, Strain/Indicator: YG1042, Metabolic Activation: NONE, Method: PREINCUBATION) is “active; positive”.

Regarding `Oc1ccc2c(ccc3c4ccccc4ccc23)c1`, the mutagenic call was “inactive; negative” (Test System: AMES SALMONELLA TYPHIMURIUM, Strain/Indicator: TA98, Metabolic Activation: RAT, LIVER, S-9, AROCLOR 1254, Method: STANDARD PLATE) and “inactive; negative” under setting [3].

`Nc1c(S(=O)(=O)O)cc(Nc2cccc(S(=O)(=O)CCOS(=O)(=O)O)c2)c2c1C(=O)c1ccccc1C2=O`: under “Test System: MOUSE LYMPHOMA, Strain/Indicator: L5178Y (TK+/TK-), Metabolic Activation: NONE, Method: SUSPENSION/PLATE”, the mutagenic call is “active; positive”.
